Laboratory results taken from PubChem BioAssay (NCI).
Values joined by “and” are separate entries in the source; they are usually repeats but may differ in a detail not shown here. Equal entries are not always repeated.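 Method: 48-hour compound exposure of cells in 96-well plates, five concentrations, linear interpolation of endpoints. At the GI50, growth is halved. Definition used: TGI = concentration required for complete inhibition of growth.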

How the values were obtained:
Assay in all cases: inhibition of tumour cell growth, NCI panel, 48 h
[1] = tested on: PC-3 prostate
[2] = tested on: UACC-257 melanoma
[3] = tested on: U251 CNS
[4] = tested on: NCI-H460 lung
[5] = tested on: SNB-19 CNS
[6] = tested on: SF-539 CNS
[7] = tested on: HT29 colon
[8] = tested on: HOP-62 NSCLC
[9] = tested on: SNB-75 CNS
[10] = tested on: TK-10 renal
[11] = tested on: MDA-MB-231 breast
[12] = tested on: OVCAR-3 ovarian
[13] = tested on: KM12 colon
[14] = tested on: COLO 205 colon
[15] = tested on: DU-145 prostate
[16] = tested on: EKVX NSCLC
[17] = tested on: K-562 leukemia
[18] = tested on: RXF 393 renal
[19] = tested on: IGROV1 ovarian
[20] = tested on: SF-268 CNS
[21] = tested on: CAKI-1 renal
[22] = tested on: UACC-62 melanoma
[23] = tested on: NCI-H23 lung
[24] = tested on: NCI-H522 lung
[25] = tested on: SK-MEL-28 melanoma
[26] = tested on: SR leukemia
[27] = tested on: HS 578T breast
[28] = tested on: SF-295 CNS
[29] = tested on: SK-MEL-2 melanoma
[30] = tested on: HCT-116 colon

## CN(C)CCSC1=Nc2ccc(Cl)cc2C(c2ccccc2Cl)=NC1
[1]
  GI50: 15.4 µM and 57.7 µM
  TGI: 33.4 µM and > 100 µM
[2]
  GI50: 13.4 µM and > 100 µM
  TGI: 26.3 µM and > 100 µM
[3]
  GI50: 13.6 µM and 89.5 µM
  TGI: 28.1 µM and > 100 µM
[4]
  GI50: 14.9 µM and 68.1 µM
  TGI: 30.7 µM and > 100 µM
[5]
  GI50: 17.1 µM and > 100 µM
  TGI: 31.1 µM and > 100 µM
[6]
  GI50: 17.3 µM and > 100 µM
  TGI: 31.6 µM and > 100 µM
[7]
  GI50: 15 µM and 40.6 µM
  TGI: 35.4 µM and > 100 µM
[8]
  GI50: 15.8 µM and > 100 µM
  TGI: 32.1 µM and > 100 µM
[9]
  TGI: 33.1 µM and > 100 µM
[10]
  GI50: 17.5 µM and 63.4 µM
  TGI: 33.1 µM and > 100 µM
[11]
  GI50: 10.7 µM and > 100 µM
  TGI: 22.8 µM and > 100 µM
[12]
  GI50: 17.3 µM and > 100 µM
  TGI: 31.8 µM and > 100 µM
[13]
  GI50: 16.5 µM and 44.1 µM
  TGI: 34.3 µM and > 100 µM
[14]
  GI50: 14 µM and 74.2 µM
  TGI: 27.3 µM and > 100 µM
[15]
  GI50: 14.4 µM and 60.2 µM
  TGI: 30.5 µM and > 100 µM
[16]
  GI50: 14.8 µM and 43.4 µM
  TGI: 29.9 µM and > 100 µM
[17]
  TGI: > 100 µM
[18]
  TGI: 15.9 µM and > 100 µM
[19]
  TGI: > 100 µM
[20]
  GI50: 13.9 µM and 99.4 µM
  TGI: 28.2 µM and > 100 µM
[21]
  GI50: 15.1 µM and 79.5 µM
  TGI: 31.5 µM and > 100 µM
[22]
  TGI: 19.1 µM and > 100 µM
[23]
  GI50: 15 µM and 97.1 µM
  TGI: 30.2 µM and > 100 µM
[24]
  GI50: 6.68 µM and 52.2 µM
  TGI: 21.6 µM and > 100 µM
[25]
  GI50: 19.4 µM and > 100 µM
  TGI: 34.1 µM and > 100 µM
[26]
  GI50: 6.68 µM and 42 µM
  TGI: > 100 µM
[27]
  TGI: 35.7 µM and > 100 µM
[28]
  GI50: 16 µM and 68.7 µM
  TGI: 31.5 µM and > 100 µM
[29]
  TGI: > 100 µM
[30]
  GI50: 13.8 µM and 58.4 µM
